Assay results as given in paper PMC10053925, “Virtual Screening of Novel 24-Dehydroxysterol Reductase (DHCR24) Inhibitors and the Biological Evaluation of Irbesartan in Cholesterol-Lowering Effect” (Molecules, 2023).

Key:
[1] = biological target: T1, 3β-hydroxysterol-Δ(24)-reductase (DHCR24) (Homo sapiens, UniProt Q15392); assay: in vitro turnover to cholesterol by immunoprecipitated DHCR24, HPLC; assay type: biochemical
T1 construct: DHCR24 immunoprecipitated from HepG2 cells infected with Ad-cmv-DHCR24 (antibody-DHCR24 complex)
T1 sequence (Q15392 23-516): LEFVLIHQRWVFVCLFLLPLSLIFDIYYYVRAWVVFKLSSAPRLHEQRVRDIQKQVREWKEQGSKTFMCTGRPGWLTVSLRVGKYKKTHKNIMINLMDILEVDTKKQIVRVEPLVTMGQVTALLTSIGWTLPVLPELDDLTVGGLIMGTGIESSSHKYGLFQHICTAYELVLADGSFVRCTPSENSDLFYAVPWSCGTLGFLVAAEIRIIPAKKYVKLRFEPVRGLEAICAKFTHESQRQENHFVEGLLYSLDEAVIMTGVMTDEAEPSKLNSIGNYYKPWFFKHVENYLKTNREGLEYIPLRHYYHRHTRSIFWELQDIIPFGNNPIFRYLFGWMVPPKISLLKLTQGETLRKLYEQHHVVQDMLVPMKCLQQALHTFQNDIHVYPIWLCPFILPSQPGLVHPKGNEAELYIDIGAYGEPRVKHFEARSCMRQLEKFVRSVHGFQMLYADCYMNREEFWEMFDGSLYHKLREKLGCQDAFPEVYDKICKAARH

[2] = biological target: T1, 3β-hydroxysterol-Δ(24)-reductase (DHCR24); assay: immune complex-activity assay; HPLC of desmosterol to cholesterol conversion; assay type: biochemical

IC50 [2]	Structure (SMILES)	in vitro turnover to cholesterol by immunoprecipitated DHCR24, HPLC [1]
	CC(C)=CCC[C@@H](C)[C@H]1CC[C@H]2[C@@H]3CC=C4C[C@@H](O)CC[C@]4(C)[C@H]3CC[C@]12C [DES, desmosterol]	desmosterol in the system can be catalyzed into cholesterol only in the presence of the DHCR24 enzyme
602 nM	CCCCC1=NC2(CCCC2)C(=O)N1Cc1ccc(-c2ccccc2-c2nnn[nH]2)cc1 [IRB, Irbesartan]	
